How the values were obtained:
Malassezia yeast = test: Minimum inhibitory concentration, Malassezia yeast; format: cell-based; settings: species not given
Procedure: (§1) The MIC (minimum inhibitory concentrations) of N-capryloyl L-glutamine and glyceryl monoundecylenate and 1:1 mixture (by weight) of the two antimicrobials against various microbes are determined as per PCPC (Personal Care Product Council, Washington, USA) protocol.

bacteria, yeast and mold = test: Challenge test (preservation efficacy) in cleansing surfactant composition of Table 2a; format: cell-based; settings: for challenge test / preservation efficacy test: 1.5% level in the same formulation, pH 5.5 and 7.0
Text: In an embodiment several personal care compositions of various types have been tested for the preservation efficacy of the combination of N-capryloyl L-glutamine and glyceryl monoundecylenate using PCPC (Personal Care Products Council, Washington DC, formerly known as CTFA) protocol ('Evaluation of preservatives to protect cosmetics' by D. Orth in Cosmetics and Toiletries, March 91). […] Both ‘rinse-off’ and ‘leave-on’ formulations (Examples 5 to 10) passed the challenge tests. Using the typical surfactant composition two sets are prepared at different pHs, 5.5 and 7.0. Antimicrobials individually and in combination are tested for preservation efficacy. [table]

[1] = Biodegradability, OECD 301D-Closed Bottle Test
Text: N-capryloyl L-glutamine and glyceryl monoundecylenate, derived from renewable sources, are compatible with most used ingredients of the personal care compositions.

[2] = system: Cutibacterium acnes ATCC 6919; test: Minimum inhibitory concentration (PCPC protocol); format: cell-based; settings: Gram positive
Procedure: as §1

[3] = system: Staphylococcus epidermidis NCIM 2493; test: Minimum inhibitory concentration (PCPC protocol); format: cell-based; settings: Gram positive, b76: at skin pH of 5.5
Procedure: as §1

[4] = system: Malassezia restricta ATCC MYA 4611; test: Minimum inhibitory concentration (PCPC protocol); format: cell-based; settings: Yeast
Procedure: as §1

[5] = system: Staphylococcus hominis MTCC 8980; test: Minimum inhibitory concentration (PCPC protocol); format: cell-based; settings: Gram positive
Procedure: as §1

[6] = system: Candida albicans ATCC 10231; test: Minimum inhibitory concentration (PCPC protocol); format: cell-based; settings: Yeast
Procedure: as §1

[7] = system: Aspergillus niger ATCC 16404; test: Minimum inhibitory concentration (PCPC protocol); format: cell-based; settings: Mold
Procedure: as §1

[8] = system: Malassezia furfur ATCC 14521; test: Minimum inhibitory concentration (PCPC protocol); format: cell-based; settings: Yeast
Procedure: as §1

[9] = system: Gardnerella vaginalis ATCC 14018; test: Minimum inhibitory concentration (PCPC protocol); format: cell-based; settings: Gram variable
Procedure: as §1

[10] = system: Candida glabrata ATCC 66032; test: Minimum inhibitory concentration (PCPC protocol); format: cell-based; settings: Yeast
Procedure: as §1

[11] = system: Corynebacterium xerosis ATCC 373; test: Minimum inhibitory concentration (PCPC protocol); format: cell-based; settings: Gram positive
Procedure: as §1

[12] = system: Pseudomonas aeruginosa ATCC 15442; test: Minimum inhibitory concentration (PCPC protocol); format: cell-based; settings: Gram negative
Procedure: as §1

[13] = system: Staphylococcus aureus ATCC 6538; test: Minimum inhibitory concentration (PCPC protocol); format: cell-based; settings: Gram positive; b76: at skin pH of 5.5
Procedure: as §1

[14] = system: Burkholderia cepacia ATCC 25416; test: Minimum inhibitory concentration (PCPC protocol); format: cell-based; settings: Gram negative
Procedure: as §1

[15] = system: Escherichia coli ATCC 8739; test: Minimum inhibitory concentration (PCPC protocol); format: cell-based; settings: Gram negative
Procedure: as §1

[16] = system: Micrococcus luteus NCIM 2103; test: Minimum inhibitory concentration (PCPC protocol); format: cell-based; settings: Gram positive
Procedure: as §1

[17] = antimicrobial 1.5% in total in cleansing formulation of Table 2a, pH 5.5
[18] = antimicrobial 1.5% in total in cleansing formulation of Table 2a, pH 7.0
[19] = antimicrobial 2.0% in cleansing formulation of Table 2a, pH 5.5
[20] = antimicrobial 2.0% in total in cleansing formulation of Table 2a, pH 7.0
[21] = deployed alone at 2% in the surfactant composition, at both acidic and neutral pH (5.5 and 7.0)

SMILES | MIC against Malassezia yeast (Malassezia yeast) [%] | challenge test / preservation efficacy test (bacteria, yeast and mold) | Challenge Test (bacteria, yeast and mold; [17]) | Challenge Test (bacteria, yeast and mold; [18]) | Challenge Test (bacteria, yeast and mold; [19]) | Challenge Test (bacteria, yeast and mold; [20]) | Challenge Test (bacteria, yeast and mold; [21]) | biodegradability as per OECD 301D-Closed Bottle Test [1] | MIC in % Cutibacterium acnes ATCC 6919 [2] [%] | MIC in % Staphylococcus epidermidis NCIM 2493 [3] [%] | MIC in % Malassezia restricta ATCC MYA 4611 [4] [%] | MIC in % Staphylococcus hominis MTCC 8980 [5] [%] | MIC in % Candida albicans ATCC 10231 [6] [%] | MIC in % Aspergillus niger ATCC 16404 [7] [%] | MIC in % Malassezia furfur ATCC 14521 [8] [%] | MIC in % Gardnerella vaginalis ATCC 14018 [9] [%] | MIC in % Candida glabrata ATCC 66032 [10] [%] | MIC in % Corynebacterium xerosis ATCC 373 [11] [%] | MIC in % Pseudomonas aeruginosa ATCC 15442 [12] [%] | MIC in % Staphylococcus aureus ATCC 6538 [13] [%] | also measured
C=CCCCCCCCCC(=O)OCC(O)CO (stereo not shown) [GMU, glyceryl monoundecylenate] | 0.2 | fail to pass the challenge test | Fails | Fails | Passes | Passes | preserve the composition | completely biodegradable | 0.9 | 1 | 0.2 | 0.7 | 1 | 0.8 | 0.2 | 0.3 | 0.4 | 0.5 | 1 | 0.1 | MIC in % Staphylococcus epidermidis NCIM 2493 ([3]; listed as glyceryl mono undecylenate): 1.0%; MIC in % Staphylococcus epidermidis NCIM 2493 ([3]; listed as glyceryl monoundecylenate): 0.9%; MIC in % Burkholderia cepacia ATCC 25416 [14]: 1%; MIC in % Escherichia coli ATCC 8739 [15]: 1%; MIC in % Micrococcus luteus NCIM 2103 [16]: 0.5%
CCCCCCCC(=O)N[C@@H](CCC(N)=O)C(=O)O [CG, N-capryloyl L-glutamine] | 0.2 | fail to pass the challenge test | Passes | Fails | Passes | Passes | preserve the composition | completely biodegradable | 0.2 | 0.9 | 0.4 | 0.6 | 0.6 | 1 | 0.3 | 0.6 | 0.6 | 0.5 | 0.7 | 0.3 | MIC in % Staphylococcus epidermidis NCIM 2493 ([3]; listed as N-capryloyl L-glutamine): 1.0%; MIC in % Burkholderia cepacia ATCC 25416 [14]: 1%; MIC in % Escherichia coli ATCC 8739 [15]: 0.7%; MIC in % Micrococcus luteus NCIM 2103 [16]: 0.5%

Source: patent US20250099356A1, “PERSONAL CARE COMPOSITION WITH N-CAPRYLOYL L-GLUTAMINE AND GLYCERYL MONOUNDECYLENATE AS PRESERVATIVE” (GALAXY SURFACTANTS LTD., priority 2024, published 2025)
